Experimental data reported in US20230150944A1, “PESTICIDALLY ACTIVE HETEROCYCLIC DERIVATIVES WITH SULFOXIMINE CONTAINING SUBSTITUENTS” (SYNGENTA CROP PROTECTION AG, priority 2018, published 2023).

Tests used:
Format in all cases: in vivo
[1] = system: Myzus persicae (Green Peach Aphid); assay: Example B4: Activity on Myzus persicae, sunflower leaf disc spray; details: foliar, 144 h, application rate of 200 ppm, mixed-age aphids on sprayed sunflower leaf discs, 6 days after infestation
Description: Example B4: Activity on Myzus persicae (Green Peach Aphid)
Sunflower leaf discs were placed onto agar in a 24-well microtiter plate and sprayed with aqueous test solutions prepared from 10′000 ppm DMSO stock solutions. After drying, the leaf discs were infested with an aphid population of mixed ages. The samples were assessed for mortality 6 days after infestation.

[2] = system: Euschistus heros (Neotropical Brown Stink Bug); assay: Example B3: Activity on Euschistus heros, soybean leaf spray; details: 120 h, application rate of 200 ppm, N2 nymphs on soybean leaves, 5 days after infestation, read-out: effect in at least one of the two categories (mortality or growth inhibition)
Description: Example B3: Activity on Euschistus heros (Neotropical Brown Stink Bug)
Soybean leaves on agar in 24-well microtiter plates were sprayed with aqueous test solutions prepared from 10′000 ppm DMSO stock solutions. After drying the leaves were infested with N2 nymphs. The samples were assessed for mortality and growth inhibition in comparison to untreated samples 5 days after infestation.

[3] = system: Diabrotica balteata (Corn Root Worm); assay: Example B2: Activity on Diabrotica balteata, maize sprout spray; details: 96 h, application rate of 200 ppm, L2 larvae on maize sprouts, 4 days after infestation, read-out: effect in at least one of the two categories (mortality or growth inhibition)
Description: Example B2: Activity on Diabrotica balteata (Corn Root Worm)
Maize sprouts placed onto an agar layer in 24-well microtiter plates were treated with aqueous test solutions prepared from 10′000 ppm DMSO stock solutions by spraying. After drying, the plates were infested with L2 larvae (6 to 10 per well). The samples were assessed for mortality and growth inhibition in comparison to untreated samples 4 days after infestation.

[4] = system: Plutella xylostella (Diamond Back Moth); assay: Example B6: Activity on Plutella xylostella, artificial diet, L2 larvae; details: 120 h, application rate of 200 ppm, 5 days after infestation, read-out: effect in at least one of the two categories (mortality or growth inhibition)
Description: Example B6: Activity on Plutella xylostella (Diamond Back Moth)
(§1) 24-well microtiter plates with artificial diet were treated with aqueous test solutions prepared from 10′000 ppm DMSO stock solutions by pipetting. After drying, the plates were infested with L2 larvae (10 to 15 per well). The samples were assessed for mortality and growth inhibition in comparison to untreated samples 5 days after infestation.

[5] = system: Myzus persicae (Green Peach Aphid); assay: Example B5: Activity on Myzus persicae, pea seedling roots in test solution; details: 144 h, test rate of 24 ppm, roots of infested pea seedlings placed into test solution, 6 days
Description: Example B5: Activity on Myzus persicae (Green Peach Aphid)
Roots of pea seedlings infested with an aphid population of mixed ages were placed directly into aqueous test solutions prepared from 10′000 DMSO stock solutions. The samples were assessed for mortality 6 days after placing seedlings into test solutions.

[6] = system: Spodoptera littoralis (Egyptian Cotton Leaf Worm); assay: Example B7: Activity on Spodoptera littoralis, cotton leaf disc spray; details: foliar, 72 h, application rate of 200 ppm, L1 larvae on cotton leaf discs, 3 days after infestation, read-out: control (mortality, anti-feeding effect or growth inhibition)
Description: Example B7: Activity on Spodoptera littoralis (Egyptian Cotton Leaf Worm)
Cotton leaf discs were placed onto agar in 24-well microtiter plates and sprayed with aqueous test solutions prepared from 10′000 ppm DMSO stock solutions. After drying the leaf discs were infested with five L1 larvae. The samples were assessed for mortality, anti-feeding effect, and growth inhibition in comparison to untreated samples 3 days after infestation. Control of Spodoptera littoralis by a test sample is given when at least one of the categories mortality, anti-feedant effect, and growth inhibition is higher than the untreated sample.

[7] = system: Bemisia tabaci (Cotton White Fly); assay: Example B1: Activity on Bemisia tabaci, cotton leaf disc spray; details: foliar, 144 h, application rate of 200 ppm, adult white flies on cotton leaf discs, 6 days after incubation
Description: Example B1: Activity on Bemisia tabaci (Cotton White Fly)
Cotton leaf discs were placed on agar in 24-well microtiter plates and sprayed with aqueous test solutions prepared from 10′000 ppm DMSO stock solutions. After drying the leaf discs were infested with adult white flies. The samples were checked for mortality 6 days after incubation.

[8] = system: Plutella xylostella (Diamond Back Moth); assay: Example B11: Activity on Plutella xylostella, artificial diet, eggs; details: 192 h, application rate of 200 ppm, 8 days after infestation, read-out: effect in at least one of the two categories (mortality or growth inhibition)
Description: Example B11: Activity on Plutella xylostella (Diamond Back Moth)
as §1, with “drying, Plutella eggs were pipetted through a plastic stencil onto a gel blotting paper and” for “drying,”, “plate was closed” for “plates were infested”, “it.” for “L2 larvae (10 to 15 per well).”, “8” for “5”

CCS(=N)(=O)c1cc(C2CC2)cnc1-c1nc2cc(SC(F)(F)F)ncc2n1C (stereo not drawn) [Example P4, [5-cyclopropyl-2-[3-methyl-6-(trifluoromethylsulfanyl)imidazo[4,5-c]pyridin-2-yl]-3-pyridyl]-ethyl-imino-oxo-λ^6-sulfane]
≥ 80%: mortality at 200 ppm [1] | percent effect (mortality or growth inhibition) at 200 ppm [2] | percent effect (mortality or growth inhibition) at 200 ppm [3] | percent effect (mortality or growth inhibition) at 200 ppm [4] | mortality at 24 ppm [5] | percent control (mortality, anti-feedant effect or growth inhibition) at 200 ppm [6] | mortality at 200 ppm [7]

CCS(=N)(=O)c1cc(C2CC2)cnc1-c1nc2cc(C(F)(F)F)ncc2n1C (stereo not drawn) [Example P5, [5-cyclopropyl-2-[3-methyl-6-(trifluoromethyl)imidazo[4,5-c]pyridin-2-yl]-3-pyridyl]-ethyl-imino-oxo-λ^6-sulfane]
≥ 80%: mortality at 200 ppm [1] | percent effect (mortality or growth inhibition) at 200 ppm [3] | percent effect (mortality or growth inhibition) at 200 ppm [4] | mortality at 24 ppm [5] | percent control (mortality, anti-feedant effect or growth inhibition) at 200 ppm [6]

CCS(=N)(=O)c1cc(C2(C#N)CC2)cnc1-c1nc2cc(C(F)(F)F)cnc2n1C (stereo not drawn) [Example P6, 1-[5-(ethylsulfonimidoyl)-6-[3-methyl-6-(trifluoromethyl)imidazo[4,5-b]pyridin-2-yl]-3-pyridyl]cyclopropanecarbonitrile]
≥ 80%: mortality at 200 ppm [1] | percent effect (mortality or growth inhibition) at 200 ppm [4] | mortality at 24 ppm [5] | mortality at 200 ppm [7]

CCS(=N)(=O)c1cc(C2CC2)cnc1-n1cc2cnc(C(F)(F)F)cc2n1 (stereo not drawn) [Example P7, [5-cyclopropyl-2-[6-(trifluoromethyl)pyrazolo[4,3-c]pyridin-2-yl]-3-pyridyl]-ethyl-imino-oxo-λ^6-sulfane]
≥ 80%: mortality at 200 ppm [1] | percent effect (mortality or growth inhibition) at 200 ppm [3] | percent effect (mortality or growth inhibition) at 200 ppm [4] | mortality at 24 ppm [5] | percent control (mortality, anti-feedant effect or growth inhibition) at 200 ppm [6]

CCS(=N)(=O)c1cc(C2(C#N)CC2)cnc1-c1nc2cc(C(F)(F)F)n(OC)c(=O)c2n1C (stereo not drawn) [Example P8, 1-[5-(ethylsulfonimidoyl)-6-[5-methoxy-3-methyl-4-oxo-6-(trifluoromethyl)imidazo[4,5-c]pyridin-2-yl]-3-pyridyl]cyclopropanecarbonitrile]
≥ 80%: mortality at 200 ppm [1] | percent effect (mortality or growth inhibition) at 200 ppm [2] | percent effect (mortality or growth inhibition) at 200 ppm [3] | percent effect (mortality or growth inhibition) at 200 ppm [4] | mortality at 24 ppm [5] | percent control (mortality, anti-feedant effect or growth inhibition) at 200 ppm [6] | mortality at 200 ppm [7]

CCS(=N)(=O)c1cc(C2(C#N)CC2)ccc1-c1nc2cc(SC(F)(F)F)ncc2n1C (stereo not drawn) [Example P9, 1-[3-(ethylsulfonimidoyl)-4-[3-methyl-6-(trifluoromethylsulfanyl)imidazo[4,5-c]pyridin-2-yl]phenyl]cyclopropanecarbonitrile]
≥ 80%: mortality at 200 ppm [1] | percent effect (mortality or growth inhibition) at 200 ppm [2] | mortality at 24 ppm [5]

CCS(=N)(=O)c1cc(C2(C#N)CC2)cnc1-c1nc2cc(C(F)(F)F)nnc2n1C (stereo not drawn) [Example P10, 1-[5-(ethylsulfonimidoyl)-6-[7-methyl-3-(trifluoromethyl)imidazo[4,5-c]pyridazin-6-yl]-3-pyridyl]cyclopropanecarbonitrile]
≥ 80%: mortality at 200 ppm [1] | percent effect (mortality or growth inhibition) at 200 ppm [2] | percent effect (mortality or growth inhibition) at 200 ppm [3] | mortality at 24 ppm [5] | mortality at 200 ppm [7]

CCS(=N)(=O)c1cc(C2CC2)cnc1-c1nc2cc(C(F)(F)F)nnc2n1C (stereo not drawn) [Example P11, [5-cyclopropyl-2-[7-methyl-3-(trifluoromethyl)imidazo[4,5-c]pyridazin-6-yl]-3-pyridyl]-ethyl-imino-oxo-λ^6-sulfane]
≥ 80%: mortality at 200 ppm [1] | percent effect (mortality or growth inhibition) at 200 ppm [3] | percent effect (mortality or growth inhibition) at 200 ppm [4] | mortality at 24 ppm [5] | percent control (mortality, anti-feedant effect or growth inhibition) at 200 ppm [6]

CCS(=N)(=O)c1cc(C2CC2)cnc1-c1nc2cc(C(F)(F)F)cnc2n1C (stereo not drawn) [Example P12, [5-cyclopropyl-2-[3-methyl-6-(trifluoromethyl)imidazo[4,5-b]pyridin-2-yl]-3-pyridyl]-ethyl-imino-oxo-λ^6-sulfane]
≥ 80%: mortality at 200 ppm [1] | percent effect (mortality or growth inhibition) at 200 ppm [3] | percent effect (mortality or growth inhibition) at 200 ppm [4] | mortality at 24 ppm [5] | percent control (mortality, anti-feedant effect or growth inhibition) at 200 ppm [6]

CCS(=N)(=O)c1cc(C2(C#N)CC2)ccc1-c1nc2cc(C(F)(F)F)ncc2n1C (stereo not drawn) [Example P13, 1-[3-(ethylsulfonimidoyl)-4-[3-methyl-6-(trifluoromethyl)imidazo[4,5-c]pyridin-2-yl]phenyl]cyclopropanecarbonitrile]
≥ 80%: mortality at 200 ppm [1] | percent effect (mortality or growth inhibition) at 200 ppm [2] | percent effect (mortality or growth inhibition) at 200 ppm [3] | mortality at 24 ppm [5] | mortality at 200 ppm [7]

CCn1c(C(F)(F)F)cc2nc(-c3ncc(C4(C#N)CC4)cc3S(=N)(=O)CC)n(C)c2c1=O (stereo not drawn) [Example P14, 1-[6-[5-ethyl-3-methyl-4-oxo-6-(trifluoromethyl)imidazo[4,5-c]pyridin-2-yl]-5-(ethylsulfonimidoyl)-3-pyridyl] cyclopropanecarbonitrile]
≥ 80%: mortality at 200 ppm [1] | percent effect (mortality or growth inhibition) at 200 ppm [2] | percent effect (mortality or growth inhibition) at 200 ppm [3] | percent effect (mortality or growth inhibition) at 200 ppm [4] | mortality at 24 ppm [5] | percent control (mortality, anti-feedant effect or growth inhibition) at 200 ppm [6] | mortality at 200 ppm [7]

CCS(=N)(=O)c1cc(C2(C#N)CC2)ccc1-c1nc2cc(C(F)(F)F)cnc2n1C (stereo not drawn) [Example P15, 1-[3-(ethylsulfonimidoyl)-4-[3-methyl-6-(trifluoromethyl)imidazo[4,5-b]pyridin-2-yl]phenyl]cyclopropanecarbonitrile]
≥ 80%: mortality at 200 ppm [1] | percent effect (mortality or growth inhibition) at 200 ppm [2] | percent effect (mortality or growth inhibition) at 200 ppm [4] | mortality at 24 ppm [5] | percent control (mortality, anti-feedant effect or growth inhibition) at 200 ppm [6] | mortality at 200 ppm [7]

CCS(=N)(=O)c1cc(C2(C#N)CC2)cnc1-n1cc2cnc(C(F)(F)F)cc2n1 (stereo not drawn) [Example P17, 1-[5-(ethylsulfonimidoyl)-6-[6-(trifluoromethyl)pyrazolo[4,3-c]pyridin-2-yl]-3-pyridyl] cyclopropanecarbonitrile]
≥ 80%: mortality at 200 ppm [1] | mortality at 24 ppm [5] | percent effect (mortality or growth inhibition) at 200 ppm [8]

CCS(=N)(=O)c1cc(C2CC2)cnc1-c1nc2cc(SC(F)(F)F)ccc2o1 (stereo not drawn) [Example P18, [5-cyclopropyl-2-[5-(trifluoromethylsulfanyl)-1,3-benzoxazol-2-yl]-3-pyridyl]-ethyl-imino-oxo-λ^6-sulfane]
≥ 80%: percent effect (mortality or growth inhibition) at 200 ppm [8]

CCS(=N)(=O)c1cc(C2CC2)cnc1-c1nc2cc(S(=O)(=O)C(F)(F)F)ccc2o1 (stereo not drawn) [Example P19, [5-cyclopropyl-2-[5-(trifluoromethylsulfonyl)-l ,3-benzoxazol-2-yl]-3-pyridyl]-ethyl-imino-oxo-λ^6-sulfane]
≥ 80%: percent effect (mortality or growth inhibition) at 200 ppm [8]
